Source: paper PMC7956643, “Synthesis of Novel Pyrido[1,2-c]pyrimidine Derivatives with 6-Fluoro-3-(4-piperidynyl)-1,2-benzisoxazole Moiety as Potential SSRI and 5-HT1A Receptor Ligands” (International Journal of Molecular Sciences, 2021)
Entries after “also recorded” stand apart in the source; their conditions may differ. Marks after values point to notes of the source that are not given here.

Tests used:
[1] = target: T1, 5-HT1A receptor (Mus musculus, UniProt Q64264); test: Body temperature in mice (induced hypothermia); type: in vivo, CD-1 mice
T1 construct: from tissue; host or cells: whole animal, male CD-1 mice
T1 sequence (Q64264 1-421): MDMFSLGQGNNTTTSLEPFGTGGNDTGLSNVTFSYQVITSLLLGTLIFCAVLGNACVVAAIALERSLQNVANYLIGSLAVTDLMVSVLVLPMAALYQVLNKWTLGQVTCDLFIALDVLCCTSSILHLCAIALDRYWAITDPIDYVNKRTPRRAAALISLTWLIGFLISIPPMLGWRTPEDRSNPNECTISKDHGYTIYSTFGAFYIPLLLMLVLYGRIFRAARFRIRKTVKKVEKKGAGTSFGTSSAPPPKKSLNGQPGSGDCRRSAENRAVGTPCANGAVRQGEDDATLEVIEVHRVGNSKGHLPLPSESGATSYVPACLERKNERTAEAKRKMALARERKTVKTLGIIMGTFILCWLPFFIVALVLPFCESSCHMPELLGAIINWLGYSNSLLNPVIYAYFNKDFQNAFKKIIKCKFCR
Experimental: (§1) The experiments were performed on male CD-1 mice (23–40 g). The animals were kept at room temperature (21 ± 2 °C) on a natural day-night cycle (March–October) and housed under standard laboratory conditions. They had free access to food and tap water before the experiment. Each experimental group consisted of 6–8 animals/dose. All the animals were used only once. 8-Hydroxy-2-(di-n-propylamino)tetralin hydro-bromide (8-OH-DPAT, Research Biochemical Inc.) was used as aqueous solution. […] Vehicle group was administered as 10% aqueous solution of dimethyl sulphoxide (DMSO). 8-OH-DPAT was injected subcutaneously (sc); 6a and 7g were given intraperitoneally (ip) in a volume of 10 mL/kg/mice. The obtained data were analyzed by Dunnett’s test (one drug administration) or by the Newman–Keuls test (two drugs administrations). Forced swim test: the obtained data was evaluated by one-way analysis of variance (ANOVA) followed by the Dunnett’s multiple comparisons test: p < 0.05 was considered significant.
(§2) The results were expressed as a change in body temperature (Δt) with respect to the basal body temperature, as measured at the beginning of the experiment.

[2] = target: T1, 5-HT1A receptor; test: Effect of WAY-100635 on the hypothermia induced by tested compounds; type: in vivo, CD-1 mice; settings: mice
Experimental: as §1, §2

[3] = system: CD-1 mice; test: Forced swim test in mice; type: in vivo; settings: administered 30 min before test
Experimental: All studies were performed according to the guidelines of the European Community Council (Directive 86/609/EEC) and were approved by the Ethical Committee of the Institute of Pharmacology (88/2016, 05/31/2016). The experiments were performed on male CD-1 mice (23–40 g). The animals were kept at room temperature (21 ± 2 °C) on a natural day-night cycle (March–October) and housed under standard laboratory conditions. They had free access to food and tap water before the experiment. Each experimental group consisted of 6–8 animals/dose. All the animals were used only once. 8-Hydroxy-2-(di-n-propylamino)tetralin hydro-bromide (8-OH-DPAT, Research Biochemical Inc.) was used as aqueous solution. Compounds 6a and 7g were suspended in a 10% aqueous solution of dimethyl sulphoxide (DMSO). Vehicle group was administered as 10% aqueous solution of dimethyl sulphoxide (DMSO). […] The obtained data were analyzed by Dunnett’s test (one drug administration) or by the Newman–Keuls test (two drugs administrations). Forced swim test: the obtained data was evaluated by one-way analysis of variance (ANOVA) followed by the Dunnett’s multiple comparisons test: p < 0.05 was considered significant.
The forced swim test (FST) was carried out according to the method of Porsolt at al.. […] After the first 2 min adaptation period, the total duration of immobility was measured during the last 4 min test. […]

Induction of hypothermia in mice ([1]; mice): induced hypothermia
Δt ± SEM, body temperature ([1]; mice, 0.6 mg/kg ip, 30 min): −1.0 ± 0.2 ^b °C
Δt ± SEM, body temperature ([1]; mice, 0.6 mg/kg ip, 60 min): −1.2 ± 0.1 ^b °C
Δt ± SEM, body temperature ([1]; mice, 0.6 mg/kg ip, 90 min): −0.9 ± 0.1 ^a °C
Δt ± SEM, body temperature ([1]; mice, 0.6 mg/kg ip, 120 min): −0.8 ± 0.2 ^a °C
Δt ± SEM, body temperature ([1]; mice, 1.25 mg/kg ip, 30 min): −1.7 ± 0.3 ^b °C
Δt ± SEM, body temperature ([1]; mice, 1.25 mg/kg ip, 60 min): −1.7 ± 0.3 ^b °C
Δt ± SEM, body temperature ([1]; mice, 1.25 mg/kg ip, 90 min): −1.6 ± 0.2 ^b °C
Δt ± SEM, body temperature ([1]; mice, 1.25 mg/kg ip, 120 min): −1.6 ± 0.3 ^b °C
Δt ± SEM, body temperature ([1]; mice, 2.5 mg/kg ip, 30 min): −1.6 ± 0.2 ^b °C
Δt ± SEM, body temperature ([1]; mice, 2.5 mg/kg ip, 60 min): −2.5 ± 0.3 ^b °C
Δt ± SEM, body temperature ([1]; mice, 2.5 mg/kg ip, 90 min): −2.4 ± 0.3 ^b °C
Δt ± SEM, body temperature ([1]; mice, 2.5 mg/kg ip, 120 min): −2.0 ± 0.2 ^b °C
Δt ± SEM, body temperature ([1]; mice, 5 mg/kg ip, 30 min): −2.0 ± 0.2 ^b °C
Δt ± SEM, body temperature ([1]; mice, 5 mg/kg ip, 60 min): −3.2 ± 0.5 ^b °C
Δt ± SEM, body temperature ([1]; mice, 5 mg/kg ip, 90 min): −3.1 ± 0.5 ^b °C
Δt ± SEM, body temperature ([1]; mice, 5 mg/kg ip, 120 min): −2.8 ± 0.5 ^b °C
Δt ± SEM, body temperature ([2]; WAY-100635 0.1 mg/kg sc 15 min before compound 0.6 mg/kg, 30 min): −0.5 ± 0.2 ^b,d °C
Δt ± SEM, body temperature ([2]; WAY-100635 0.1 mg/kg sc 15 min before compound 0.6 mg/kg, 60 min): −0.4 ± 0.2 ^a,e °C
Hypothermia induced by compound diminished by WAY-100635 ([2]; WAY-100635 0.1 mg/kg, compound 0.6 mg/kg): 50%
Δt ± SEM, body temperature ([2]; vehicle + compound 0.6 mg/kg, 30 min): −1.0 ± 0.2 ^c °C
Δt ± SEM, body temperature ([2]; vehicle + compound 0.6 mg/kg, 60 min): −1.2 ± 0.1 ^c °C
Structure (SMILES): O=c1c(-c2ccccc2)c2ccccn2c(=O)n1CCCCN1CCC(c2noc3cc(F)ccc23)CC1 [Compound 6a, 4-Phenyl-2-{4-[4-(6-fluoro-1,2-benzoxazol-3-yl)-1-piperidyl]butyl}-pyrido[1,2-c]pyrimidine-1,3-dione]
Functional 5-HT1A receptor activity profile ([1]; concluded from induced hypothermia test in mice): presynaptic agonist of the 5-HT1A receptor; also recorded: presynaptic 5-HT1A agonistic activity
Effect in the forced swimming test [3]: inactivity; also recorded: ineffective
